This note sets out measurements from paper PMC4697445 (Journal of medicinal chemistry, 2015).

One data set in a line: Biodistribution in rats. The format is in vivo, male Sprague-Dawley rats. To be noted: rat; for in vivo metabolic defluorination (bone activity): 5 to 60 min p.i.; for blood uptake / bone uptake / brain uptake / fat uptake / kidney uptake / liver uptake / muscle uptake: iv, mean ± SD, n = 4.
Another data set deals with PDE10A (Rattus norvegicus, UniProt Q9QYJ6). To be noted: by 30 min p.i.
PDE10A, sequence (Q9QYJ6 whole entry): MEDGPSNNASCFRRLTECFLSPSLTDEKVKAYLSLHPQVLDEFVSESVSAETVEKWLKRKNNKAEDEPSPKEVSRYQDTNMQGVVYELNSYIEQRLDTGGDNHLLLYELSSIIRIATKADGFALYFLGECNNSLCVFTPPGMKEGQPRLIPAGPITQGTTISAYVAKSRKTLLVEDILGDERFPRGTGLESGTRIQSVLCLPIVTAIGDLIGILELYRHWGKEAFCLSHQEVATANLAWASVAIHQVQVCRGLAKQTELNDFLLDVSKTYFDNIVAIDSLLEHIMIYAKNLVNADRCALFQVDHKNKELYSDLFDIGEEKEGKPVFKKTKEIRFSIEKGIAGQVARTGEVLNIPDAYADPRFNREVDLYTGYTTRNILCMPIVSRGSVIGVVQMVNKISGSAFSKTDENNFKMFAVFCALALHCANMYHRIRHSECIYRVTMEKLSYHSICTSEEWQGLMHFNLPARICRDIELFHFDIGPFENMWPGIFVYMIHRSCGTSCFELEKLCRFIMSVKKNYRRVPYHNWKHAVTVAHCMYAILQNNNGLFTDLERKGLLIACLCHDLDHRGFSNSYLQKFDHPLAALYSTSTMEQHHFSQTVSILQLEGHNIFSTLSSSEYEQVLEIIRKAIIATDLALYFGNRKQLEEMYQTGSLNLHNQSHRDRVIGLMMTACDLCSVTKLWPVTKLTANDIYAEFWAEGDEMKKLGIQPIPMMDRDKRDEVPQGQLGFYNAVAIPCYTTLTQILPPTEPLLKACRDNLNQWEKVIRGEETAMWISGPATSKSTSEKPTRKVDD

`Cn1cc(-c2ccncc2)c(-c2ccc(OCc3cc(F)c4ccccc4n3)cc2)n1` [Compound 18a, 4-Fluoro-2-((4-(1-methyl-4-(pyridin-4-yl)-1H-pyrazol-3-yl)-phenoxy)methyl)quinoline]: in the data set “Biodistribution in rats”, the “in vivo metabolic defluorination (bone activity)” value (from here on “in vivo metabolic defluorination”) is “undergo in vivo metabolic defluorination in rodents”.
On the same count and under the same terms, next, `Cn1cc(-c2ccncc2)c(-c2ccc(OCc3cc(CF)c4ccccc4n3)cc2)n1` [Compound 18b, 4-(Fluoromethyl)-2-((4-(1-methyl-4-(pyridin-4-yl)-1H-pyrazol-3-yl)phenoxy)methyl) quinoline]: “undergo in vivo metabolic defluorination in rodents”; `Cn1cc(-c2ccncc2)c(-c2ccc(OCc3cc(CCCF)c4ccccc4n3)cc2)n1` [Compound 18c, 4-(3-Fluoropropyl)-2-((4-(1-methyl-4-(pyridin-4-yl)-1H-pyrazol-3-yl)phenoxy)methyl) quinoline]: “undergo in vivo metabolic defluorination in rodents”.
In the case of `Cn1cc(-c2ccncc2)c(-c2ccc(OCc3cc([18F])c4ccccc4n3)cc2)n1` [[^18F]18a, 4-(Fluoro-^18F)-2-((4-(1-methyl-4-(pyridin-4-yl)-1H-pyrazol-3-yl)phenoxy)methyl)quinoline], in “Biodistribution in rats” (5 min p.i.), the blood uptake is 0.353 ± 0.063 %ID/g, the bone uptake is reported as 0.522 ± 0.116 %ID/g, the brain uptake came to 0.410 ± 0.063 %ID/g and the fat uptake is 0.404 ± 0.102 %ID/g. In the data set “Biodistribution in rats” (5 min p.i.), this compound displayed a kidney uptake of 1.887 ± 0.296 %ID/g, a liver uptake of 6.87 ± 1.27 %ID/g and a muscle uptake of 0.339 ± 0.053 %ID/g. In addition, in the data set “Biodistribution in rats” (30 min p.i.), the blood uptake was 0.376 ± 0.033 %ID/g, the bone uptake stood at 4.035 ± 0.153 %ID/g, the brain uptake was 0.191 ± 0.036 %ID/g and the fat uptake was determined as 0.576 ± 0.154 %ID/g. In the data set “Biodistribution in rats” (30 min p.i.), this compound yielded a kidney uptake of 1.034 ± 0.131 %ID/g, a liver uptake of 3.00 ± 0.91 %ID/g and a muscle uptake of 0.236 ± 0.019 %ID/g. In “Biodistribution in rats” (60 min p.i.), this compound had a blood uptake of 0.150 ± 0.021 %ID/g, a bone uptake of 6.300 ± 0.314 %ID/g, a brain uptake of 0.125 ± 0.009 %ID/g and a fat uptake of 0.477 ± 0.099 %ID/g. In “Biodistribution in rats” (60 min p.i.), this compound returned a kidney uptake of 0.533 ± 0.119 %ID/g, a liver uptake of 1.60 ± 0.87 %ID/g and a muscle uptake of 0.092 ± 0.010 %ID/g. Also, at PDE10A, the “ratio of activity in the striatum versus nontarget brain regions” value was > 2 fold.
As to `Cn1cc(-c2ccncc2)c(-c2ccc(OCc3cc(C[18F])c4ccccc4n3)cc2)n1` [[^18F]18b, 4-((Fluoro-^18F)methyl)-2-((4-(1-methyl-4-(pyridin-4-yl)-1H-pyrazol-3-yl)phenoxy)methyl) quinoline], in “Biodistribution in rats” (5 min p.i.), the blood uptake was 0.471 ± 0.040 %ID/g, the bone uptake is listed as 0.421 ± 0.063 %ID/g, the brain uptake turned out to be 0.128 ± 0.012 %ID/g and the fat uptake is on record as 0.343 ± 0.153 %ID/g. For the same compound, in the data set “Biodistribution in rats” (5 min p.i.), the kidney uptake was 1.799 ± 0.207 %ID/g, the liver uptake is 10.16 ± 1.86 %ID/g and the muscle uptake is on record as 0.227 ± 0.042 %ID/g. In “Biodistribution in rats” (30 min p.i.), this compound showed a blood uptake of 0.416 ± 0.062 %ID/g, a bone uptake of 4.055 ± 1.305 %ID/g, a brain uptake of 0.094 ± 0.023 %ID/g and a fat uptake of 0.352 ± 0.081 %ID/g. Moreover, in the data set “Biodistribution in rats” (30 min p.i.), the kidney uptake is given as 1.351 ± 0.216 %ID/g, the liver uptake is on record as 4.01 ± 1.34 %ID/g and the muscle uptake is reported as 0.174 ± 0.042 %ID/g. In the data set “Biodistribution in rats” (60 min p.i.), this compound displayed a blood uptake of 0.201 ± 0.026 %ID/g, a bone uptake of 5.620 ± 1.132 %ID/g, a brain uptake of 0.069 ± 0.008 %ID/g and a fat uptake of 0.222 ± 0.029 %ID/g. In “Biodistribution in rats” (60 min p.i.), this compound displayed a kidney uptake of 0.573 ± 0.134 %ID/g, a liver uptake of 3.10 ± 0.61 %ID/g and a muscle uptake of 0.107 ± 0.032 %ID/g. On PDE10A, the “ratio of activity in the striatum versus nontarget brain regions” value is on record as > 2 fold.
Turning to `Cn1cc(-c2ccncc2)c(-c2ccc(OCc3cc(COCC[18F])c4ccccc4n3)cc2)n1` [[^18F]18e, 4-((2-(Fluoro-^18F)ethoxy)methyl)-2-((4-(1-methyl-4-(pyridin-4-yl)-1H-pyrazol-3-yl)phenoxy)methyl)quinoline], the “in vivo metabolic defluorination” value in the data set “Biodistribution in rats” is “appeared more stable to in vivo defluorination”. Besides, in “Biodistribution in rats” (5 min p.i.), the blood uptake is 0.440 ± 0.038 %ID/g, the bone uptake worked out at 0.133 ± 0.028 %ID/g, the brain uptake was determined as 0.213 ± 0.039 %ID/g and the fat uptake was 0.139 ± 0.031 %ID/g. In the data set “Biodistribution in rats” (5 min p.i.), this compound had a kidney uptake of 0.981 ± 0.163 %ID/g, a liver uptake of 3.99 ± 0.82 %ID/g and a muscle uptake of 0.155 ± 0.040 %ID/g. In the data set “Biodistribution in rats” (30 min p.i.), this compound registered a blood uptake of 0.424 ± 0.074 %ID/g, a bone uptake of 0.170 ± 0.030 %ID/g, a brain uptake of 0.353 ± 0.021 %ID/g and a fat uptake of 0.139 ± 0.037 %ID/g. In “Biodistribution in rats” (30 min p.i.), this compound registered a kidney uptake of 0.632 ± 0.123 %ID/g, a liver uptake of 0.987 ± 0.038 %ID/g and a muscle uptake of 0.265 ± 0.117 %ID/g. In the data set “Biodistribution in rats” (60 min p.i.), this compound displayed a blood uptake of 0.401 ± 0.029 %ID/g, a bone uptake of 0.337 ± 0.072 %ID/g, a brain uptake of 0.343 ± 0.033 %ID/g and a fat uptake of 0.066 ± 0.018 %ID/g. In the data set “Biodistribution in rats” (60 min p.i.), this compound had a kidney uptake of 0.485 ± 0.045 %ID/g, a liver uptake of 0.554 ± 0.064 %ID/g and a muscle uptake of 0.228 ± 0.058 %ID/g.
Regarding `Cn1cc(-c2ccncc2)c(-c2ccc(OCc3cc(OCCOCCOCC[18F])c4ccccc4n3)cc2)n1` [[^18F]18g], the “in vivo metabolic defluorination” value in the data set “Biodistribution in rats” is listed as “appeared more stable to in vivo defluorination”. Also, in “Biodistribution in rats” (5 min p.i.), the blood uptake was 0.699 ± 0.090 %ID/g, the bone uptake stood at 0.487 ± 0.044 %ID/g, the brain uptake is listed as 0.353 ± 0.052 %ID/g and the fat uptake was 0.225 ± 0.086 %ID/g. Besides, in the data set “Biodistribution in rats” (5 min p.i.), the kidney uptake is 5.969 ± 0.744 %ID/g, the liver uptake was found to be 4.74 ± 1.10 %ID/g and the muscle uptake was 0.419 ± 0.090 %ID/g. In the data set “Biodistribution in rats” (30 min p.i.), this compound showed a blood uptake of 0.771 ± 0.061 %ID/g, a bone uptake of 0.441 ± 0.049 %ID/g, a brain uptake of 0.509 ± 0.038 %ID/g and a fat uptake of 0.254 ± 0.051 %ID/g. In the data set “Biodistribution in rats” (30 min p.i.), this compound came in with a kidney uptake of 1.793 ± 0.291 %ID/g, a liver uptake of 1.53 ± 0.49 %ID/g and a muscle uptake of 0.488 ± 0.086 %ID/g. In “Biodistribution in rats” (60 min p.i.), this compound yielded a blood uptake of 0.646 ± 0.045 %ID/g, a bone uptake of 0.490 ± 0.035 %ID/g, a brain uptake of 0.421 ± 0.028 %ID/g and a fat uptake of 0.123 ± 0.021 %ID/g. In the data set “Biodistribution in rats” (60 min p.i.), this compound came in with a kidney uptake of 1.037 ± 0.170 %ID/g, a liver uptake of 0.527 ± 0.068 %ID/g and a muscle uptake of 0.379 ± 0.027 %ID/g.
